Assay results published in PMC10612255, “Discovery of novel 2,3,4,5-tetrahydrospiro[benzo[c]azepine-1,1’-cyclohexan]-5-ol derivatives as PARP-1 inhibitors” (BMC Chemistry, 2023).
Read-outs that look alike come from different tables or passages of the source.

Legend:
A549 = assay: MTT assay, anti-proliferative effect on A549 cells; assay type: cell-based, human; settings: read-out: IC50 A549
Method: (§1) A549, OVCAR-3, HCT-116, and MCF-7 were purchased from American type culture collection (ATCC, USA). […] And all cell lines used in the experiment were tested for mycoplasma contamination every two weeks.
(§2) A549, OVCAR-3, HCT-116, and MCF-7 cells were seeded in 96-well plates, and then treated with target compounds for 72 h. Then, 20 µL MTT (5 mg/mL, in PBS) was added into each well, and dissolved in 150 µL DMSO after incubation for 4 h. Finally, the absorbance was measured with microplate reader (490 nm).

HCT-116 = assay: MTT assay, anti-proliferative effect on HCT-116 cells; assay type: cell-based, human; settings: read-out: IC50 HCT-116
Method: as §1, §2

MCF-7 = assay: MTT assay, anti-proliferative effect on MCF-7 cells; assay type: cell-based, human; settings: read-out: IC50 MCF-7
Method: as §1, §2

OVCAR-3 = assay: MTT assay, anti-proliferative effect on OVCAR-3 cells; assay type: cell-based, human; settings: read-out: IC50 OVCAR-3
Method: as §1, §2

Row | SMILES | IC50 (A549; Homo sapiens, A549, 72 h) [µM] | IC50 (HCT-116; Homo sapiens, HCT-116, 72 h) [µM] | IC50 (MCF-7; Homo sapiens, MCF7, 72 h) [µM] | IC50 (OVCAR-3; Homo sapiens, OVCAR-3, 72 h) [µM] | melting point [°C] | IC50 (A549; A549, human lung adenocarcinoma cell line, MTT, 72 h, Mean ± SD) [µM] | IC50 (HCT-116; HCT-116, human colon cancer cell line, MTT, 72 h, Mean ± SD) [µM] | IC50 (MCF-7; MCF7, human breast cancer cell line, MTT, 72 h, Mean ± SD) [µM] | IC50 (OVCAR-3; OVCAR-3, human ovarian cancer cell line, MTT, 72 h, Mean ± SD) [µM]
1 | COc1cccc(-n2cc(CN3CCC(O)c4ccccc4C34CCCCC4)nn2)c1 (stereo not drawn) [Compound 11 L, 2-((1-(3-methoxyphenyl)-1 H-1,2,3-triazol-4-yl)methyl)-2,3,4,5-tetrahydrospiro[benzo[c]azepine-1,1’-cyclohexan]-5-ol] | 11.1 ± 2.98 | 11.7 ± 4.88 | 8.54 ± 1.65 | 6.14 ± 0.56 | 172.3 to 174.1 | – | – | – | –
2 | Cc1ccc(-n2cc(CN3CCC(O)c4ccccc4C34CCCCC4)nn2)cc1 (stereo not drawn) [Compound 11 g, 2-((1-(p-tolyl)-1 H-1,2,3-triazol-4-yl)methyl)-2,3,4,5-tetrahydrospiro[benzo[c]azepine-1,1’-cyclohexan]-5-ol] | 6.84 ± 1.68 | 9.81 ± 2.89 | 7.96 ± 1.1 | 4.64 ± 0.99 | 164.3 to 165.2 | – | – | – | –
3 | OC1CCN(Cc2cn(-c3ccccc3Cl)nn2)C2(CCCCC2)c2ccccc21 (stereo not drawn) [Compound 11 h, 2-((1-(2-chlorophenyl)-1 H-1,2,3-triazol-4-yl)methyl)-2,3,4,5-tetrahydrospiro[benzo[c]azepine-1,1’-cyclohexan]-5-ol] | 15.1 ± 1.18 | 8.97 ± 3.16 | 6.5 ± 1.78 | 4.44 ± 0.1 | 167.9 to 168.3 | – | – | – | –
4 | COc1ccc(-n2cc(CN3CCC(O)c4ccccc4C34CCCCC4)nn2)cc1 (stereo not drawn) [Compound 11 m, 2-((1-(4-methoxyphenyl)-1 H-1,2,3-triazol-4-yl)methyl)-2,3,4,5-tetrahydrospiro[benzo[c]azepine-1,1’-cyclohexan]-5-ol] | 8.7 ± 4.1 | 5.87 ± 0.54 | 9.33 ± 1.33 | 6 ± 1.83 | 170.2 to 172.3 | – | – | – | –
5 | OC1CCN(Cc2cn(-c3ccccc3)nn2)C2(CCCCC2)c2ccccc21 (stereo not drawn) [Compound 11a, 2-((1-phenyl-1 H-1,2,3-triazol-4-yl)methyl)-2,3,4,5-tetrahydrospiro[benzo[c]azepine-1,1’-cyclohexan]-5-ol] | 9.5 ± 1.23 | 10.3 ± 2.74 | 15.5 ± 2.53 | 13.6 ± 2.45 | – | – | – | – | –
6 | OC1CCN(Cc2cn(-c3cccc(F)c3)nn2)C2(CCCCC2)c2ccccc21 (stereo not drawn) [Compound 11c, 2-((1-(3-fluorophenyl)-1 H-1,2,3-triazol-4-yl)methyl)-2,3,4,5-tetrahydrospiro[benzo[c]azepine-1,1’-cyclohexan]-5-ol] | 4.29 ± 0.56 | 12.6 ± 2.43 | 7.6 ± 1.96 | 7.65 ± 2.56 | – | – | – | – | –
7 | OC1CCN(Cc2cn(-c3ccc(F)cc3)nn2)C2(CCCCC2)c2ccccc21 (stereo not drawn) [Compound 11d, 2-((1-(4-fluorophenyl)-1 H-1,2,3-triazol-4-yl)methyl)-2,3,4,5-tetrahydrospiro[benzo[c]azepine-1,1’-cyclohexan]-5-ol] | 4.88 ± 1.18 | 8.76 ± 3.11 | 16.2 ± 3.88 | 17.1 ± 1.5 | 166.2 to 166.8 | – | – | – | –
8 | Cc1ccccc1-n1cc(CN2CCC(O)c3ccccc3C23CCCCC3)nn1 (stereo not drawn) [Compound 11e, 2-((1-(o-tolyl)-1 H-1,2,3-triazol-4-yl)methyl)-2,3,4,5-tetrahydrospiro[benzo[c]azepine-1,1’-cyclohexan]-5-ol] | 15.6 ± 2.8 | 9.22 ± 4.57 | 9.33 ± 4.08 | 7.95 ± 3.35 | 165.2 to 166 | – | – | – | –
9 | Cc1cccc(-n2cc(CN3CCC(O)c4ccccc4C34CCCCC4)nn2)c1 (stereo not drawn) [Compound 11f, 2-((1-(m-tolyl)-1 H-1,2,3-triazol-4-yl)methyl)-2,3,4,5-tetrahydrospiro[benzo[c]azepine-1,1’-cyclohexan]-5-ol] | 11.8 ± 1.07 | 12.2 ± 2.01 | 8.94 ± 3.17 | 21.7 ± 8.94 | 167.3 to 168.2 | – | – | – | –
10 | OC1CCN(Cc2cn(-c3cccc(Cl)c3)nn2)C2(CCCCC2)c2ccccc21 (stereo not drawn) [Compound 11i, 2-((1-(3-chlorophenyl)-1 H-1,2,3-triazol-4-yl)methyl)-2,3,4,5-tetrahydrospiro[benzo[c]azepine-1,1’-cyclohexan]-5-ol] | 13.6 ± 2.47 | 10.8 ± 2.95 | 6.34 ± 3.17 | 4.28 ± 0.77 | 168.1 to 168.8 | – | – | – | –
11 | OC1CCN(Cc2cn(-c3ccc(Cl)cc3)nn2)C2(CCCCC2)c2ccccc21 (stereo not drawn) [Compound 11j, 2-((1-(4-chlorophenyl)-1 H-1,2,3-triazol-4-yl)methyl)-2,3,4,5-tetrahydrospiro[benzo[c]azepine-1,1’-cyclohexan]-5-ol] | 18.8 ± 2.67 | 17.9 ± 1.95 | 5.27 ± 0.92 | 5.79 ± 1.25 | 165.6 to 166.3 | – | – | – | –
12 | COc1ccccc1-n1cc(CN2CCC(O)c3ccccc3C23CCCCC3)nn1 (stereo not drawn) [Compound 11k, 2-((1-(2-methoxyphenyl)-1 H-1,2,3-triazol-4-yl)methyl)-2,3,4,5-tetrahydrospiro[benzo[c]azepine-1,1’-cyclohexan]-5-ol] | 12.6 ± 5.91 | 13.1 ± 2.03 | 7.54 ± 1.05 | 10.5 ± 0.09 | – | – | – | – | –
13 | OC1CCN(Cc2cn(-c3ccccc3Br)nn2)C2(CCCCC2)c2ccccc21 (stereo not drawn) [Compound 11n, 2-((1-(2-bromophenyl)-1 H-1,2,3-triazol-4-yl)methyl)-2,3,4,5-tetrahydrospiro[benzo[c]azepine-1,1’-cyclohexan]-5-ol] | 17.9 ± 3.94 | 15.7 ± 1.98 | 10.6 ± 0.85 | 12.6 ± 1.55 | 168.2 to 169.8 | – | – | – | –
14 | OC1CCN(Cc2cn(-c3cccc(Br)c3)nn2)C2(CCCCC2)c2ccccc21 (stereo not drawn) [Compound 11o, 2-((1-(3-bromophenyl)-1 H-1,2,3-triazol-4-yl)methyl)-2,3,4,5-tetrahydrospiro[benzo[c]azepine-1,1’-cyclohexan]-5-ol] | 7.4 ± 1.75 | 10.8 ± 2.11 | 7.99 ± 2.53 | 4.2 ± 0.48 | 169.3 to 170.2 | – | – | – | –
15 | OC1CCN(Cc2cn(-c3ccc(Br)cc3)nn2)C2(CCCCC2)c2ccccc21 (stereo not drawn) [Compound 11p, 2-((1-(4-bromophenyl)-1 H-1,2,3-triazol-4-yl)methyl)-2,3,4,5-tetrahydrospiro[benzo[c]azepine-1,1’-cyclohexan]-5-ol] | 9.58 ± 2.53 | 9.93 ± 3.01 | 16.4 ± 4.37 | 12.7 ± 1.43 | – | – | – | – | –
16 | Oc1ccccc1-n1cc(CN2CCC(O)c3ccccc3C23CCCCC3)nn1 (stereo not drawn) [Compound 11q, 2-((1-(2-hydroxyphenyl)-1 H-1,2,3-triazol-4-yl)methyl)-2,3,4,5-tetrahydrospiro[benzo[c]azepine-1,1’-cyclohexan]-5-ol] | 10.6 ± 1.2 | > 50 | 8.72 ± 0.71 | 13.2 ± 4.09 | 156.8 to 157.2 | – | – | – | –
17 | Oc1cccc(-n2cc(CN3CCC(O)c4ccccc4C34CCCCC4)nn2)c1 (stereo not drawn) [Compound 11r, 2-((1-(3-hydroxyphenyl)-1 H-1,2,3-triazol-4-yl)methyl)-2,3,4,5-tetrahydrospiro[benzo[c]azepine-1,1’-cyclohexan]-5-ol] | 11.9 ± 5.74 | 12.1 ± 0.98 | > 50 | 3.9 ± 0.26 | 157.4 to 158.6 | – | – | – | –
18 | Oc1ccc(-n2cc(CN3CCC(O)c4ccccc4C34CCCCC4)nn2)cc1 (stereo not drawn) [Compound 11s, 2-((1-(4-hydroxyphenyl)-1 H-1,2,3-triazol-4-yl)methyl)-2,3,4,5-tetrahydrospiro[benzo[c]azepine-1,1’-cyclohexan]-5-ol] | > 50 | > 50 | > 50 | > 50 | 171.1 to 172.3 | – | – | – | –
19 | N#Cc1ccccc1-n1cc(CN2CCC(O)c3ccccc3C23CCCCC3)nn1 (stereo not drawn) [Compound 11t, 2-(4-((5-hydroxy-4,5-dihydrospiro[benzo[c]azepine-1,1’-cyclohexan]-2(3 H)-yl)methyl)-1 H-1,2,3-triazol-1-yl)benzonitrile] | > 50 | > 50 | > 50 | > 50 | – | – | – | – | –
20 | N#Cc1cccc(-n2cc(CN3CCC(O)c4ccccc4C34CCCCC4)nn2)c1 (stereo not drawn) [Compound 11u, 3-(4-((5-hydroxy-4,5-dihydrospiro[benzo[c]azepine-1,1’-cyclohexan]-2(3 H)-yl)methyl)-1 H-1,2,3-triazol-1-yl)benzonitrile] | > 50 | > 50 | > 50 | > 50 | – | – | – | – | –
21 | N#Cc1ccc(-n2cc(CN3CCC(O)c4ccccc4C34CCCCC4)nn2)cc1 (stereo not drawn) [Compound 11v, 4-(4-((5-hydroxy-4,5-dihydrospiro[benzo[c]azepine-1,1’-cyclohexan]-2(3 H)-yl)methyl)-1 H-1,2,3-triazol-1-yl)benzonitrile] | > 50 | > 50 | > 50 | > 50 | – | – | – | – | –
22 | CNCc1ccc(-c2[nH]c3cc(F)cc4c3c2CCNC4=O)cc1 [Rucaparib, reference compound] | – | – | – | – | – | 4.91 ± 0.11 | 13.5 ± 0.17 | 13 ± 0.28 | 2.41 ± 0.13
